Data published in patent US6693123B2 (University of Pittsburgh, priority 1995, dated 2004).
Structures can show the parent of a compound that is named as a salt.

Each compound was assayed against T1, Rat brain protein farnesyltransferase (Rattus norvegicus, UniProt Q02293+Q04631) (assay: In vitro inhibition of protein farnesyltransferase, Amersham scintillation proximity assay with biotin-K Ras B fragment). Settings: Inhibition of farnesyltransferase; compound at 1 × 10^−6 M (Table 2).
T1 construct: The enzyme is purified according to Reiss, Y., et al., Cell, 62: 81-88 (1990), utilizing steps one through three; from tissue; host or cells: rat brain
Assay type: biochemical
From the text: The ability of the compounds of the invention to inhibit protein farnesyltransferase or protein geranylgeranyltransferase can be measured according to the method of Moores, et al., J. Biol. Chem. 266: 14603 (1991) or the method of Vogt, et al., J. Biol. Chem. 270:660-664 (1995). In addition, procedures for determination of the inhibition of farnesylation of the oncogene protein Ras are described by Goldstein, et al., J. Biol. Chem., 266:15575-15578 (1991) and by Singh in U.S. Pat. No. 5,245,061.
In addition, in vitro inhibition of protein farnesyltransferase may be measured by the following procedure. Rat brain protein farnesyltransferase activity is measured using an Amersham Life Science commercial scintillation proximity assay kit and substituting a biotin-K Ras B fragment (biotin-[…]Ue-Met-CO2H), 0.1 mM final concentration, for the biotin-lamin substrate provided by Amersham. The enzyme is purified according to Reiss, Y., et al., Cell, 62: 81-88 (1990), utilizing steps one through three. […]
The % inhibition of protein farnesyltransferase was determined for representative compounds of the invention.

| Compound | % inhibition at 1 × 10^−6 M [%] |
| --- | --- |
| Cc1ccccc1-c1cc(COc2cccnc2)ccc1C(=O)N[C@@H](CCC(N)=O)C(=O)O [Example 313, (S)-2-N-[4-(3-Pyridyloxymethyl)-2-(2-methyl)phenylbenzoyl]amino-4-(aminocarbonyl)butanoic Acid] | 94 |
| CSCC[C@H](NC(=O)c1ccc(COc2cccnc2)cc1-c1ccc(C)cc1)C(=O)O [Example 206] | 67 |
| {4-[2-(3-Pyridy)-2-hydroxyethyl]-2-phenylbenzoyl]methionine Sodium Salt and {4-[2-(3-Pyridy)-1-hydroxyethyl]-2-phenylbenzoyl}methionine Sodium Salt [Example 284] | 83 |
| {4-[2-(Pyrid-3-yl)ethenyl]-2-(2-methylphenyl)benzyl}methionine Butyl Ester [Example 292] | 36 |

Same assay, conditions: Inhibition of farnesyltransferase; compound at 1 × 10^−6 M (Table 2); read-out: % inhibition at 1 × 10^−6 M

| Compound | inhibition at 1 µM [%] |
| --- | --- |
| CSCC[C@H](NC(=O)c1cc(CC(C)C)c(COc2cccnc2)cc1-c1ccccc1C)C(=O)O [Example 320, [4-(3-Pyridyloxymethyl)-2-(2-methylphenyl)-5-isobutylbenzoyl]methionine] | 93 |
| CC1(C)O[C@H](c2cccnc2)[C@@H](c2ccc(C(=O)N[C@@H](CCS(C)(=O)=O)C(=O)O)c(-c3ccccc3)c2)O1 [Example 222, N-{4-[2,2-Dimethyl-4-(3-pyridyl)-1,3-dioxolan-5-yl-]-2-phenylbenzoyl}-2-amino-4-methanesulfonylbutanoic Acid] | 41 |
| CSCC[C@H](NC(=O)c1cc(Cc2ccccc2)c(COc2cccnc2)cc1-c1ccccc1C)C(=O)O [Example 344] | 95 |
| CSCC[C@H](NC(=O)c1ccc(COc2cccnc2)cc1-c1ccccc1C)C(=O)NS(C)(=O)=O [Example 252, [4-(3-Pyridyloxymethyl)-2-(2-methylphenyl)benzoyl]methionine Methylsulfonimide] | 98 |
| CSCC[C@H](NC(=O)c1ccc(CN(Cc2ccccc2)c2cccnc2)cc1-c1ccccc1C)C(=O)OCOC(=O)C(C)(C)C [Example 500, Pivaloyloxymethyl N-[4-N-Benzyl-N-pyridin-3-ylaminomethyl-2-(2-methylphenyl)benzoyl]methionine] | 98 |
| CSCC[C@H](NC(=O)c1ccc(C(O)c2ccncc2)cc1-c1ccccc1)C(=O)O (stereo partly drawn) [Example 298, [4-(4-Pyridylhydroxymethyl)-2-phenylbenzoyl]methionine Sodium Salt] | 43 |
| COC(=O)[C@H](CCSC)NC(=O)c1ccc(NCc2cccnc2)cc1-c1ccccc1 [Example 201, [4-(3-Pyridylmethylamino)-2-phenylbenzoyl]methionine Methyl Ester] | 63 |
| COC(=O)[C@H](CCSC)N(C)C(=O)c1ccc(CNc2cccnc2)cc1-c1ccccc1 [Example 158, [4-(3-Pyridylaminomethylene)-2-phenylbenzoyl]-N-methylmetionine Methyl Ester] | 2 |
| CSCC[C@H](NC(=O)c1cc(-c2cc(Cl)cc(Cl)c2)c(COc2cccnc2)cc1-c1ccccc1C)C(=O)O [Example 345] | 91 |
| CSCC[C@H](NC(=O)c1ccc(Sc2cccnc2)cc1-c1ccccc1)C(=O)O [Example 241] | 41 |
| CSCC[C@H](NC(=O)c1ccc(NC(=O)c2nccn2C)cc1-c1ccccc1)C(=O)O [Example 186, [4-(1H-1-Methylimidazol-2-ylcarboxyamino)-2-phenylbenzoyl]methionine] | 86 |
| COc1ccc(-c2cc(COc3cccnc3)ccc2C(=O)N[C@@H](CCSC)C(=O)O)cc1 [Example 209, [4-(3-Pyridyloxymethyl)-2-(4-methoxyphenyl)benzoyl]methionine] | 74 |
| CS(=O)(=O)CC[C@H](NC(=O)c1ccc(NC(=O)c2cccnc2)cc1-c1ccccc1)C(=O)O [Example 203, [4-(3-Pyridylcarbonylamino)-2-phenylbenzoyl]-2-amino-4-(methylsulfonyl)butanoic Acid] | 76 |
| CS(=O)(=O)CC[C@H](NC(=O)c1ccc(CNc2cccnc2)cc1-c1ccccc1)C(=O)O [Example 239, N-[4-(3-Pyridylaminomethyl)-2-phenylbenzoyl]-2-amino-4-(methylsulfonyl)butanoic Acid] | 97 |
| COCC[C@H](NC(=O)c1ccc(COc2cccnc2)cc1-c1ccccc1)C(=O)O [Example 245] | 50 |

Same assay, conditions: Inhibition of farnesyltransferase; compound at 1 × 10^−7 M (Table 3); read-out: % inhibition at 1 × 10^−7 M

| Compound | inhibition at 0.1 µM [%] |
| --- | --- |
| CCCCCc1cc(C(=O)N[C@@H](CCSC)C(=O)O)c(-c2ccccc2C)cc1COc1cccnc1 [Example 919, N-[5-Pentyl-4-(pyrid-3-yloxymethyl)-2-(2-methylphenyl)benzoyl]methionine] | 91 |
| CSCC[C@H](NC(=O)c1ccc(CCc2cnccc2C(O)c2ccccc2)cc1-c1ccccc1C)C(=O)O (stereo partly drawn) [Example 485, N-[4-(2-(4-α-Hydroxybenzyl)pyrid-3-ylethyl)-2-(2-methylphenyl)benzoyl]methionine Lithium Salt] | 96 |
| CSCC[C@H](NC(=O)c1ccc(/C=C/c2cnccc2C(O)C2CCCCC2)cc1-c1ccccc1C)C(=O)O (stereo partly drawn) [Example 486, N-[4-(2-(4-(1-Cyclohexyl)hydroxmethyl)pyrid-3-ylethen-1-yl)-2-(2-methylphenyl)benzoyl]methionine Lithium Salt] | 97 |
| CSCC[C@H](NC(=O)c1ccc(/C=C/c2cnccc2C(O)c2ccccc2)cc1-c1ccccc1C)C(=O)O (stereo partly drawn) [Example 484, N-[4-(2-(4-α-Hydroxybenzyl)pyrid-3-ylethen-1-yl)-2-(2-methylphenyl)benzoyl]methionine Lithium Salt] | 97 |

Same assay, conditions: read-out: % inhibition at 0.01 μM

| Compound | inhibition at 0.01 µM [%] |
| --- | --- |
| CSCC[C@H](NC(=O)c1ccc(C=Cc2cnccc2O)cc1-c1ccccc1C)C(=O)O [Example 1039, N-[4-(2-(4-Hydroxypyridin-3-yl)ethenyl)-2-(2-methylphenyl)benzoyl]methionine Lithium Salt] | 89 |
| CSCC[C@H](NC(=O)c1ccc(CN(Cc2cc(F)cc(F)c2)c2cccnc2)cc1-c1ccccc1C)C(=O)O [Example 1360, N-[4-N-3,5-Difluorobenzyl-N-(3-pyridyl)aminomethyl-2-(2-methylphenyl)benzoyl]methionine Lithium Salt] | 98 |

Same assay, conditions: read-out: % inhibition at 1 × 10^−6 M

| Compound | inhibition at 1 µM [%] |
| --- | --- |
| CNCCc1cnc[nH]1 [Example 722] | 96 |
| CSCC[C@H](NC(=O)c1ccc(C=Cc2cccnc2)cc1-c1ccccc1C)C(=O)OCCN(C)C [Example 294, {4-[2-(Pyrid-3-yl)ethenyl]-2-(2-methylphenyl)benzoyl}methionine Dimethylaminoethyl Ester] | 98 |
| CSCC[C@H](NC(=O)c1ccc(COc2cccnc2)cc1-c1ccccc1C(F)(F)F)C(=O)O [Example 304, [4-(3-Pyridyloxymethyl)-2-(2-trifluoromethylphenyl)benzoyl]methionine] | 99 |

Same assay, conditions: read-out: % inhibition at 1 × 10^−7 M

| Compound | inhibition at 0.1 µM [%] |
| --- | --- |
| Cc1ccccc1-c1cc(CCc2cnc3ccccc3c2)ccc1C(=O)N[C@@H](CC[S+](C)[O-])C(=O)O (stereo in doubt) [Example 490, N-[4-(2-Quinolin-3-ylethyl)-2-(2-methylphenyl)benzoyl]-2-amino-4-methylsulfinylbutanoic Acid Lithium Salt] | 70 |
| CSCC[C@H](NC(=O)c1ccc(CCc2cncc(Cc3ccccc3)c2)cc1-c1ccccc1C)C(=O)O [Example 799, Lithium Salt] | 96 |
